Test [1] concerns female adult CSMA-strain houseflies. As to the kind of experiment: Test Example 2: topical application to thorax, mortality after 24 hours. Particulars: for Relative Efficacy (reference compound: 100): from LD50, housefly, reference = racemate with same X; for LD50 (median lethal dose): topical, 0.5 μl acetone solution to thorax, 24 hours. The test is classed as in vivo, housefly. As to the method:
(§1) In the following test examples, the "racemate" (conventional product) of each of the compounds of the formula (I) was formulated in the same procedures as in each test example and then used as a reference compound.
The compounds of this invention, (1), (2), (3), (4) and (5) were diluted with acetone to a predetermined concentration, and 0.5 μl of each solution was topically applied to thorax of female adult CSMA-strain houseflies with a microsyringe. The flies were placed in a plastic cup having a diameter of 12 cm containing therein cotton absorbent impregnated with 3% sugar water. 24 hours later, the alive and dead was evaluated to determine the LD50 (median lethal dose) (μg/insect).

The test system of test [2] is adult green rice leafhoppers. As to the kind of experiment: Test Example 3: dust applied to rice seedlings, mortality after 24 hours. The test is classed as in vivo, green rice leafhopper. The conditions noted are these: 0.5% dust, 2 kg/10 ares, 200 mmHg. As to the method: 0.5 part of each of the compounds of this invention, (1), (2), (3), (4) and (5) was dissolved in 20 parts of acetone. To the solution was added 99.5 parts of 300 mesh clay, and the mixture was thoroughly stirred. The acetone was distilled off to provide a 0.5% dust.
The dusts prepared from the compounds of this invention, (1), (2), (3), (4) and (5) in the procedures described in Formulation Example 2 were applied to rice seedlings planted in each 3 inch pot and 20 days old after seeding. A bell-jar duster was used to apply each dust at a pressure of 200 mmHg at a rate of 2 kg/10 ares. After the treatment, each pot was enclosed with a metal screen cage in which about 30 adult green rice leafhoppers were released.

The subject of another test is tobacco cutworm. Nature of the test: whole plant or invertebrate. The test is classed as in vivo. Particulars: for LC50: 48 h, read-out: LC50 (median lethal concentration); for Relative Efficacy (reference compound: 100): from LC50, tobacco cutworm, reference = racemate with same X.
Text: (§2) 10 parts of each of the compounds of this invention, (1), (2), (3), (4) and (5) was mixed with 15 parts of Sorpol 3005x (a registered trademark of Toho Chemical Co., Ltd.) and 75 parts of xylene, and the mixture was thoroughly stirred to provide a 10% emulsifiable concentrate.
as §1
Each of the emulsifiable concentrates prepared from the compounds of this invention, (1), (2), (3), (4) and (5) in the procedures described in Formulation Example 1 was diluted with water to a predetermined concentration, and a sticker containing 20% of an alkylphenol polyethylene glycol ether and 12% of a salt of lignin sulfonic acid was added to the solution in an amount of 1 ml per 3,000 ml of the solution. […] Ten 3rd-instar larvae of tobacco cutworm were further immersed in each solution for 10 seconds. The leaves and cutworms were air-dried and placed in each plastic cup having a diameter of 10 cm and a height of 4 cm. 48 hours later, the alive and dead was evaluated to obtain the LC50 (median lethal concentration) (ppm).

For test [3], the system named is harmful insects and/or mites. Nature of the test: Insecticidal and/or acaricidal activity of optical isomers (general statement). The test is classed as in vivo. Particulars: Aα-isomer, X = F versus other halogens.
A further test deals with carmine mites. As to the kind of experiment: Test Example 4: emulsifiable concentrate applied to mite-infested potted kidney beans. The test is classed as in vivo, carmine mite. The conditions noted are these: 10% emulsifiable concentrate diluted 500-fold, 10 ml/pot; 10 days. As to the method: as §2
10 to 15 female adult carmine mites were placed on each leaf of potted kidney beans (2-leaf stage) 9 days old after seeding. After standing in a constant temperature room at 27° C. for a week, a lot of mites in various growth stages were observed on the beans. Each of the emulsifiable concentrates prepared from the compounds of this invention (1) and (2) in the procedures described in Formulation Example 1 was diluted 500-fold with water and applied to the beans on a turntable at a rate of 10 ml/pot.

Each structure is given as a SMILES string. In brackets after ≈: the same amount, converted by molar mass.

Regarding `CC(C)[C@H](C(=O)OC(C#N)c1cccc(Oc2ccc(Br)cc2)c1)c1ccc(Cl)cc1` (stereo partly shown) [Compound (4)], in test [1], the “Relative Efficacy (reference compound: 100)” value (“Relative Efficacy” for short) was 229 and the “LD50 (median lethal dose)” value was determined as 0.035 μg/insect. Also, the “alive and dead evaluation of leafhoppers” value in test [2] is on record as “completely killed”. Also, in the test with tobacco cutworm, the LC50 was determined as 9.5 µg/mL (≈ 19 µM) and the “Relative Efficacy” value worked out at 211.

With `CC(C)[C@H](C(=O)O[C@H](C#N)c1cccc(Oc2ccc(Cl)cc2)c1)c1ccc(Cl)cc1` [Compound (3)], in test [1], the “Relative Efficacy” value was 388 and the “LD50 (median lethal dose)” value came out at 0.016 μg/insect. Further, the “alive and dead evaluation of leafhoppers” value in test [2] is reported as “completely killed”. Moreover, in the test with tobacco cutworm, the LC50 turned out to be 3.9 µg/mL (≈ 8.58 µM) and the “Relative Efficacy” value is 390.

On to `CC(C)C(C(=O)OC(C#N)c1cccc(Oc2ccc(Br)cc2)c1)c1ccc(Cl)cc1` (racemic) [(c), reference compound], for which, in test [1], the “Relative Efficacy” value stood at 100 and the “LD50 (median lethal dose)” value is 0.080 μg/insect. Besides, in the test with tobacco cutworm, the LC50 was 20 µg/mL (≈ 40.1 µM) and the “Relative Efficacy” value is recorded as 100.

Regarding `CC(C)C(C(=O)OC(C#N)c1cccc(Oc2ccc(Cl)cc2)c1)c1ccc(Cl)cc1` (racemic) [(b), reference compound], in test [1], the “Relative Efficacy” value is on record as 100 and the “LD50 (median lethal dose)” value is 0.062 μg/insect. In addition, in the test with tobacco cutworm, the LC50 turned out to be 15.2 µg/mL (≈ 33.5 µM) and the “Relative Efficacy” value is 100.

With `CC(C)[C@H](C(=O)O[C@H](C#N)c1cccc(Oc2ccc(Br)cc2)c1)c1ccc(Cl)cc1` [Compound (5)], in test [1], the “Relative Efficacy” value was found to be 444 and the “LD50 (median lethal dose)” value came to 0.018 μg/insect. For the same compound, in test [2], the “alive and dead evaluation of leafhoppers” value is recorded as “completely killed”. In the test with tobacco cutworm, the LC50 worked out at 4.2 µg/mL (≈ 8.42 µM) and the “Relative Efficacy” value is 476.

As to `CC(C)C(C(=O)OC(C#N)c1cccc(Oc2ccc(F)cc2)c1)c1ccc(Cl)cc1` (racemic) [Reference Compound (a), reference compound], in test [1], the “Relative Efficacy” value is 100 and the “LD50 (median lethal dose)” value is given as 0.041 μg/insect. In the test with tobacco cutworm, the LC50 was found to be 5 µg/mL (≈ 11.4 µM) and the “Relative Efficacy” value turned out to be 100.

As to `CC(C)[C@H](C(=O)O[C@H](C#N)c1cccc(Oc2ccc(F)cc2)c1)c1ccc(Cl)cc1` [Compound (2)], in test [1], the “Relative Efficacy” value was determined as 410 and the “LD50 (median lethal dose)” value is 0.010 μg/insect. For the same compound, the “alive and dead evaluation of leafhoppers” value in test [2] is recorded as “completely killed”. Besides, in the test with tobacco cutworm, the LC50 was 1.2 µg/mL (≈ 2.74 µM) and the “Relative Efficacy” value was 417. Also, in test [3], the “activity compared with other halogen-substituted compounds” value is “stronger activity than other halogen-substituted compounds”. In the test on carmine mites, the “damage to mite-released kidney beans” value was “little damaged”.

Consider `CC(C)[C@H](C(=O)OC(C#N)c1cccc(Oc2ccc(F)cc2)c1)c1ccc(Cl)cc1` (stereo partly shown) [Compound (1)], for which, in test [1], the “Relative Efficacy” value came out at 216 and the “LD50 (median lethal dose)” value came to 0.019 μg/insect. For the same compound, the “alive and dead evaluation of leafhoppers” value in test [2] was “completely killed”. Also, in the test with tobacco cutworm, the LC50 was determined as 2.3 µg/mL (≈ 5.25 µM) and the “Relative Efficacy” value is given as 217. For the same compound, the “damage to mite-released kidney beans” value in the test with carmine mites is listed as “little damaged”.
